Columns and labels:
Format in all cases: functional
MDA-MB-435 = test: Cytotoxicity against human MDA-MB-435 cells after 48 hrs by trypan blue dye exclusion assay; settings: MDA-MB-435, 48 h
U-251 = test: Cytotoxicity against human U251 cells after 48 hrs by trypan blue dye exclusion assay; settings: U-251, 48 h
TK-10 = test: Cytotoxicity against human TK10 cells after 48 hrs by trypan blue dye exclusion assay; settings: TK-10, 48 h
NCI-H522 = test: Cytotoxicity against human NCI-H522 cells after 48 hrs by trypan blue dye exclusion assay; settings: NCI-H522, 48 h
MDA-MB-468 = test: Cytotoxicity against human MDA-MB-468 cells after 48 hrs by trypan blue dye exclusion assay; settings: MDA-MB-468, 48 h
SK-MEL-5 = test: Cytotoxicity against human SK-MEL-5 cells after 48 hrs by trypan blue dye exclusion assay; settings: SK-MEL-5, 48 h
SW-620 = test: Cytotoxicity against human SW620 cells after 48 hrs by trypan blue dye exclusion assay; settings: SW-620, 48 h
SK-MEL-28 = test: Cytotoxicity against human SK-MEL-28 cells after 48 hrs by trypan blue dye exclusion assay; settings: SK-MEL-28, 48 h
T47D = test: Cytotoxicity against human T47D cells after 48 hrs by trypan blue dye exclusion assay
KM12 = test: Cytotoxicity against human KM12 cells after 48 hrs by trypan blue dye exclusion assay; settings: KM12, 48 h
RPMI-8226 = test: Cytotoxicity against human RPMI8226 cells after 48 hrs by trypan blue dye exclusion assay; settings: RPMI-8226, 48 h
NCI/ADR-RES = test: Cytotoxicity against human NCI/ADR-RES cells after 48 hrs by trypan blue dye exclusion assay
OVCAR-4 = test: Cytotoxicity against human OVCAR4 cells after 48 hrs by trypan blue dye exclusion assay; settings: OVCAR-4, 48 h
[1] = Cytotoxicity against human Hs 578T cells after 48 hrs by trypan blue dye exclusion assay
SF-268 = test: Cytotoxicity against human SF268 cells after 48 hrs by trypan blue dye exclusion assay; settings: SF-268, 48 h
LOX IMVI = test: Cytotoxicity against human LOXIMVI cells after 48 hrs by trypan blue dye exclusion assay
NCI-H322M = test: Cytotoxicity against human NCI-H322M cells after 48 hrs by trypan blue dye exclusion assay
PC-3 = test: Cytotoxicity against human PC3 cells after 48 hrs by trypan blue dye exclusion assay; settings: PC-3, 48 h
OVCAR-3 = test: Cytotoxicity against human OVCAR3 cells after 48 hrs by trypan blue dye exclusion assay; settings: OVCAR-3, 48 h
NCI-H226 = test: Cytotoxicity against human NCI-H226 cells after 48 hrs by trypan blue dye exclusion assay; settings: NCI-H226, 48 h
SK-OV-3 = test: Cytotoxicity against human SKOV3 cells after 48 hrs by trypan blue dye exclusion assay; settings: SK-OV-3, 48 h
HL-60(TB) = test: Cytotoxicity against human HL-60(TB) cells after 48 hrs by trypan blue dye exclusion assay; settings: HL-60, 48 h
EKVX = test: Cytotoxicity against human EKVX cells after 48 hrs by trypan blue dye exclusion assay
UO-31 = test: Cytotoxicity against human UO31 cells after 48 hrs by trypan blue dye exclusion assay; settings: UO-31, 48 h
UACC-62 = test: Cytotoxicity against human UACC62 cells after 48 hrs by trypan blue dye exclusion assay; settings: UACC-62, 48 h
HCC 2998 = test: Cytotoxicity against human HCC2998 cells after 48 hrs by trypan blue dye exclusion assay; settings: HCC 2998, 48 h
M14 = test: Cytotoxicity against human M14 cells after 48 hrs by trypan blue dye exclusion assay; settings: M14, 48 h
SF-539 = test: Cytotoxicity against human SF539 cells after 48 hrs by trypan blue dye exclusion assay; settings: SF-539, 48 h
K562 = test: Cytotoxicity against human K562 cells after 48 hrs by trypan blue dye exclusion assay; settings: K562, 48 h
A549 = test: Cytotoxicity against human A549 cells after 48 hrs by trypan blue dye exclusion assay; settings: A549, 48 h
IGROV-1 = test: Cytotoxicity against human IGROV1 cells after 48 hrs by trypan blue dye exclusion assay; settings: IGROV-1, 48 h
SK-MEL-2 = test: Cytotoxicity against human SK-MEL-2 cells after 48 hrs by trypan blue dye exclusion assay; settings: SK-MEL-2, 48 h
SR = test: Cytotoxicity against human SR cells after 48 hrs by trypan blue dye exclusion assay
ACHN = test: Cytotoxicity against human ACHN cells after 48 hrs by trypan blue dye exclusion assay
OVCAR-8 = test: Cytotoxicity against human OVCAR8 cells after 48 hrs by trypan blue dye exclusion assay; settings: OVCAR-8, 48 h
MOLT-4 = test: Cytotoxicity against human MOLT4 cells after 48 hrs by trypan blue dye exclusion assay; settings: MOLT-4, 48 h
HCT-116 = test: Cytotoxicity against human HCT116 cells after 48 hrs by trypan blue dye exclusion assay; settings: HCT-116, 48 h
NCI-H23 = test: Cytotoxicity against human NCI-H23 cells after 48 hrs by trypan blue dye exclusion assay; settings: NCI-H23, 48 h
COLO 205 = test: Cytotoxicity against human COLO205 cells after 48 hrs by trypan blue dye exclusion assay; settings: COLO 205, 48 h
CAKI-1 = test: Cytotoxicity against human CAKI-1 cells after 48 hrs by trypan blue dye exclusion assay; settings: CAKI-1, 48 h
Malme-3M = test: Cytotoxicity against human MALME-3M cells after 48 hrs by trypan blue dye exclusion assay
BT-549 = test: Cytotoxicity against human BT549 cells after 48 hrs by trypan blue dye exclusion assay; settings: BT-549, 48 h
HCT-15 = test: Cytotoxicity against human HCT15 cells after 48 hrs by trypan blue dye exclusion assay; settings: HCT-15, 48 h
SNB-75 = test: Cytotoxicity against human SNB75 cells after 48 hrs by trypan blue dye exclusion assay; settings: SNB-75, 48 h
A498 = test: Cytotoxicity against human A498 cells after 48 hrs by trypan blue dye exclusion assay; settings: A498, 48 h
CCRF-CEM = test: Cytotoxicity against human CCRF-CEM cells after 48 hrs by trypan blue dye exclusion assay
786-0 = test: Cytotoxicity against human 786-0 cells after 48 hrs by trypan blue dye exclusion assay; settings: 786-0, 48 h
NCI-H460 = test: Cytotoxicity against human NCI-H460 cells after 48 hrs by trypan blue dye exclusion assay; settings: NCI-H460, 48 h
HOP-62 = test: Cytotoxicity against human HOP62 cells after 48 hrs by trypan blue dye exclusion assay; settings: HOP-62, 48 h
DU-145 = test: Cytotoxicity against human DU145 cells after 48 hrs by trypan blue dye exclusion assay; settings: DU-145, 48 h
MDA-MB-231 = test: Cytotoxicity against human MDA-MB-231 cells after 48 hrs by trypan blue dye exclusion assay; settings: MDA-MB-231, 48 h
SNB-19 = test: Cytotoxicity against human SNB19 cells after 48 hrs by trypan blue dye exclusion assay; settings: SNB-19, 48 h
HOP-92 = test: Cytotoxicity against human HOP92 cells after 48 hrs by trypan blue dye exclusion assay; settings: HOP-92, 48 h
SN12C = test: Cytotoxicity against human SN12C cells after 48 hrs by trypan blue dye exclusion assay
UACC-257 = test: Cytotoxicity against human UACC257 cells after 48 hrs by trypan blue dye exclusion assay; settings: UACC-257, 48 h
HT-29 = test: Cytotoxicity against human HT-29 cells after 48 hrs by trypan blue dye exclusion assay; settings: HT-29, 48 h
SF-295 = test: Cytotoxicity against human SF295 cells after 48 hrs by trypan blue dye exclusion assay; settings: SF-295, 48 h
RXF 393 = test: Cytotoxicity against human RXF393 cells after 48 hrs by trypan blue dye exclusion assay; settings: RXF 393, 48 h
MCF7 = test: Cytotoxicity against human MCF7 cells after 48 hrs by trypan blue dye exclusion assay; settings: MCF7, 48 h

COc1cc([C@@H]2c3cc4c(cc3[C@H](O)[C@H]3COC(=O)[C@H]23)OCO4)cc(OC)c1OC [PODOFILOX]
GI50 (MDA-MB-435): 10 nM | GI50 (U-251): 10.7 nM | GI50 (TK-10): 30.5 nM | GI50 (NCI-H522): 10 nM | GI50 (MDA-MB-468): 10 nM | GI50 (SK-MEL-5): 10 nM | GI50 (SW-620): 10 nM | GI50 (SK-MEL-28): 10 nM | GI50 (T47D): 84.5 µM | GI50 (KM12): 10 nM | GI50 (RPMI-8226): 10 nM | GI50 (NCI/ADR-RES): 10 nM | GI50 (OVCAR-4): 17.5 nM | GI50 [1]: 10 nM | GI50 (SF-268): 10 nM | GI50 (LOX IMVI): 10 nM | GI50 (NCI-H322M): 10 nM | GI50 (PC-3): 10 nM | GI50 (OVCAR-3): 11.3 nM | GI50 (NCI-H226): 10 nM | GI50 (SK-OV-3): 10 nM | GI50 (HL-60(TB)): 10 nM | GI50 (EKVX): 10 nM | GI50 (UO-31): 16.6 nM | GI50 (UACC-62): 10 nM | GI50 (HCC 2998): 12.3 nM | GI50 (M14): 13.1 nM | GI50 (SF-539): 10 nM | GI50 (K562): 215 nM | GI50 (A549): 13.8 nM | GI50 (IGROV-1): 13.2 nM | GI50 (SK-MEL-2): 14.9 nM | GI50 (SR): 10 nM | GI50 (ACHN): 10 nM | GI50 (OVCAR-8): 10 nM | GI50 (MOLT-4): 10 nM | GI50 (HCT-116): 10 nM | GI50 (NCI-H23): 10 nM | GI50 (COLO 205): 10 nM | GI50 (CAKI-1): 89.7 nM | GI50 (Malme-3M): 47.3 µM | GI50 (BT-549): 10 nM | GI50 (HCT-15): 13.5 nM | GI50 (SNB-75): 659 nM | GI50 (A498): 10 nM | GI50 (CCRF-CEM): 10 nM | GI50 (786-0): 16.9 nM | GI50 (NCI-H460): 10.6 nM | GI50 (HOP-62): 21.1 nM | GI50 (DU-145): 10 nM | GI50 (MDA-MB-231): 10 nM | GI50 (SNB-19): 10 nM | GI50 (HOP-92): 34.1 nM | GI50 (SN12C): 17.1 nM | GI50 (UACC-257): 10 nM | GI50 (HT-29): 10 nM | GI50 (SF-295): 10 nM | GI50 (RXF 393): 10 nM | GI50 (MCF7): 10 nM

Source: ChEMBL document CHEMBL2010711, “Synthesis and comparative evaluation of 4-oxa- and 4-aza-podophyllotoxins as antiproliferative microtubule destabilizing agents” (Bioorg Med Chem Lett, 2012)
